Common to all, as to assay type: in vivo, Human
The test system of assay [1] is External panelists. The assay can be described thus: Line scale (15-point sucrose equivalence) sensory test, Example 3A/3C, sucrose or LSB, pH 7.1. Also on record: key to Average Sweetness / Average Bitterness: 15-point scale: 0 = 0% sucrose to 15 = 15% sucrose; references = 5. As for the experimental part: (§1) Several types of sensory tests were used to determine the efficacy of 5-(neopentyloxy)-1H-benzo[c][1,2,6]thiadiazin-4-amino-2,2-dioxide in enhancing sweetness of sucrose. Two types of tests were conducted: • 1) Sensory scaling tests were performed using a 15-point percent sucrose equivalence scale for sweetness in order to evaluate sweetness enhancement 5-(neopentyloxy)-1H-benzo[c][1,2,6]thiadiazin-4-amino-2,2-dioxide in sucrose, or in fructose. • 2) Paired comparison tests (2-alternative forced choice difference tests) were used to determine sweetness equivalence for solutions of sucrose vs. 5-(neopentyloxy)-1H-benzo[c][1,2,6]thiadiazin-4-amino-2,2-dioxide or buffer vs. 5-(neopentyloxy)-1H-benzo[c][1,2,6]thiadiazin-4-amino-2,2-dioxide. Stimuli:
Tests were performed with sucrose or fructose. Sweetener was evaluated with and/or without 5-(neopentyloxy)-1H-benzo[c][1,2,6]thiadiazin-4-amino-2,2-dioxide at the appropriate concentration(s).
5-(Neopentyloxy)-1H-benzo[c][1,2,6]thiadiazin-4-amino-2,2-dioxide was prepared as a concentrated stock solution in ethanol to ensure dissolution of the compound. Therefore, all taste solutions contained 0.1% ethanol final concentration. Samples without compound also contained 0.1% ethanol. Low sodium phosphate buffer consists of 0.3 mM KCl, 0.5 mM Na2HPO4, and 0.175 mM KH2PO4.
In scaling test situations, the samples were rated on a 15-point scale for sweetness, ranging from 0=0% sucrose to 15=15% sucrose. To evaluate attributes other than sweetness, references are used for training and are prepared according to the table below. Note that each reference was given a score of 5 on the 15-point scale.
External panelists were used for the tests. The exact number of panelists is reported with test results. Subjects were instructed not to eat or drink anything (except water) for at least 1 hour prior to the test.
Panelists rinsed their mouths with water prior to starting any test. Samples were presented to panelists in a randomized, counterbalanced order. Panelists rinsed with water and had up to a 1 minute delay to clear the mouth of any tastes after each evaluation. Two replicates of each test were performed, unless otherwise noted.

For assay [2], the system named is Panelists. The assay can be described thus: Paired comparison taste test, flavored water. The procedure: Two sweetened water solutions were prepared and compared: Flavored Water with 9% Sucrose vs. Flavored Water with 6% Sucrose+2.3 ppm (6.49 μM) of 5-(neopentyloxy)-1H-benzo[c][1,2,6]thiadiazin-4-amino-2,2-dioxide.
Mixing procedures: Dissolve acid into the water using a Lightnin® blender, mix for 5 minutes. Add sugar and continue to mix until dissolved. Add flavors last. Dissolve Compound A into a 0.50% propylene glycol mixture, add last and mix for another 5 minutes. Procedure:
Panelists evaluated two sweetened water solutions in a paired comparison taste test procedure and were instructed to select the sweeter of the two samples. They perform a total of three paired comparison tests each containing the following samples: Flavored Water with 9% Sucrose vs. Flavored Water with 6% Sucrose+2.3 ppm (6.49 μM) 5-(neopentyloxy)-1H-benzo[c][1,2,6]thiadiazin-4-amino-2,2-dioxide.
Two sweetened water solutions were prepared and compared: Flavored Water with 9% Sucrose vs. Flavored Water with 6% Sucrose+2.44 ppm (6.49 μM) of 3-(4-amino-2,2-dioxide-1H-benzo[c][1,2,6]thiadiazin-5-yloxy)-2′,2′-dimethyl-N-propylpropanamide.
Panelists evaluated two sweetened water solutions in a paired comparison taste test procedure and were instructed to select the sweeter of the two samples. They perform a total of three paired comparison tests each containing the following samples: Flavored Water with 9% Sucrose vs. Flavored Water with 6% Sucrose+2.44 ppm (6.49 μM) 3-(4-amino-2,2-dioxide-1H-benzo[c][1,2,6]thiadiazin-5-yloxy)-2′,2′-dimethyl-N-propylpropanamide.

For assay [3], the system named is External panelists. Briefly: Line scale sensory test, Example 6, fructose as sweetener, pH 7.1. The arrangement: Average Sweetness / Average Bitterness: scale not given here. The procedure: Sensory evaluations were performed using fructose as the sweetener and 3-(4-amino-2,2-dioxide-1H-benzo[c][1,2,6]thiadiazin-5-yloxy)-2′,2′-dimethyl-N-propylpropanamide as the sweetness enhancer, using methods similar to those using sucrose, above. […]

Assay [4] deals with Panelists. The assay can be described thus: Paired comparison taste test, Example 7, sucrose or fructose solutions. The conditions noted are these: vs 6% Fructose + 25 μM compound, N = 25. The procedure: as §1, with “3-(4-amino-2,2-dioxide-1H-benzo[c][1,2,6]thiadiazin-5-yloxy)-2′,2′-dimethyl-N-propylpropanamide 3-(4-amino-2,2-dioxide-1H-benzo[c][1,2,6]thiadiazin-5-yloxy)-2′,2′-dimethyl-N-propylpropanamide” for “5-(neopentyloxy)-1H-benzo[c][1,2,6]thiadiazin-4-amino-2,2-dioxide”, “enhancing the” for “enhancing”, “sucrose” for “sucrose,”, “3-(4-amino-2,2-dioxide-1H-benzo[c][1,2,6]thiadiazin-5-yloxy)-2′,2′-dimethyl-N-propylpropanamide 3-(4-amino-2,2-dioxide-1H-benzo[c][1,2,6]thiadiazin-5-yloxy)-2′,2′-dimethyl-N-propylpropanamide.” for “5-(neopentyloxy)-1H-benzo[c][1,2,6]thiadiazin-4-amino-2,2-dioxide.”
Panelists evaluated two solutions in a paired comparison taste test procedure. They were instructed to select the sweeter of the two samples. They were also asked to comment on how difficult it was to tell the difference in sweetness between both samples and if any off tastes were perceived.
Panelists evaluated two solutions in a paired comparison taste test procedure and were instructed to select the sweeter of the two samples.

Setting [5] is: 6% Sucrose + 25 μM compound, pH 7.1, n = 32.

`CC(C)(C)COc1cccc2c1C(N)=NS(=O)(=O)N2` [5-(neopentyloxy)-1H-benzo[c][1,2,6]thiadiazin-4-amino-2,2-dioxide]: the off tastes entry was “no significant off tastes” in the assay on External panelists [1] (35.3 μM (10 ppm) compound in LSB or 6% sucrose) and “No significant off tastes” in the assay on External panelists [1] (6% sucrose + 25 μM compound). Also, the “Average Bitterness” value is listed as 0.3 in the assay on External panelists [1] (setting [5]); 0.6 in the assay with External panelists [1] (6% Sucrose + 35.3 μM (10 ppm) compound, n = 14); 0.3 in the assay on External panelists [1] (LSB + 35.3 μM (10 ppm) compound, no sucrose, n = 14). Besides, the “Average Sweetness” value came to 8.7 in the assay on External panelists [1] (setting [5]); 9.3 in the assay on External panelists [1] (6% Sucrose + 35.3 μM (10 ppm) compound, pH 7.1, n = 14); 0.2 in the assay with External panelists [1] (LSB + 35.3 μM (10 ppm) compound, no sucrose, pH 7.1, n = 14). The “Sweetness vs sucrose solutions (conclusion)” value in the assay with External panelists [1] (6% Sucrose + 35.3 μM (10 ppm) compound, p>0.10) was “not significantly different in sweetness from 8%, 9%, 10% sucrose”; in the assay on External panelists [1] (6% sucrose + 25 μM compound), “not significantly different in sweetness properties compared to 9% and 10% sucrose solutions”; in the assay with External panelists [1] (LSB + 35.3 μM (10 ppm) compound, p>0.10), “not significantly different in sweetness than 0% sucrose”. Also, the “Sample selected as sweeter by panelists, Total” value in the assay on Panelists [2] (Flavored Water with 6% Sucrose + 2.3 ppm (6.49 μM) compound chosen, vs 9% Sucrose, n = 45) was determined as 23. The “Sweetness comparison (conclusion)” value with Panelists [2] (Flavored Water with 6% Sucrose + 2.3 ppm (6.49 μM) compound vs 9% Sucrose, p>0.10) was “not significantly different in sweetness”.

Take `O=C(CO)[C@@H](O)[C@H](O)[C@H](O)CO` [Fructose, fructose]: the “Average Sweetness” value is 2.2 in the assay with External panelists [3] (2% Fructose, Table 29, n = 30); 4.5 in the assay with External panelists [3] (4% Fructose, Table 29, n = 30); 5.9 in the assay on External panelists [3] (6% Fructose, Table 29, n = 30); 7.1 in the assay with External panelists [3] (6% Fructose, Table 31, n = 14); 6.9 with External panelists [3] (6% Fructose, Table 33, n = 26); 8.3 in the assay with External panelists [3] (8% Fructose, Table 31, n = 14). Moreover, the “Average Sweetness” value in the assay on External panelists [3] (8% Fructose, Table 33, n = 26) was found to be 8.6; in the assay with External panelists [3] (9% Fructose, Table 31, n = 14), 9.4; in the assay with External panelists [3] (9% Fructose, Table 33, n = 26) it was 9.3; in the assay on External panelists [3] (10% Fructose, Table 31, n = 14) it was 11.1; in the assay on External panelists [3] (10% Fructose, Table 33, n = 26), 9.5. Further, the “Average Bitterness” value in the assay with External panelists [3] (2% Fructose, Table 30, n = 30) stood at 0.4; in the assay on External panelists [3] (4% Fructose, Table 30, n = 30), 0.5; with External panelists [3] (6% Fructose, Table 30, n = 30), 0.4; with External panelists [3] (6% Fructose, Table 32, n = 14) it was 0.7; in the assay with External panelists [3] (6% Fructose, Table 34, n = 26), 0.2; in the assay with External panelists [3] (8% Fructose, Table 32, n = 14), 0.3. For the same compound, the “Average Bitterness” value is listed as 0.3 with External panelists [3] (8% Fructose, Table 34, n = 26); 0.3 with External panelists [3] (9% Fructose, Table 32, n = 14); 0.1 in the assay with External panelists [3] (9% Fructose, Table 34, n = 26); 0.2 in the assay on External panelists [3] (10% Fructose, Table 32, n = 14); 0.1 with External panelists [3] (10% Fructose, Table 34, n = 26). Moreover, the “Sample selected as sweeter by panelists, Test 1” value in the assay on Panelists [4] (6% Fructose chosen) is 5. In the assay with Panelists [4] (7% Fructose chosen), the “Sample selected as more sweet by panelists, Test 1” value turned out to be 13.

Values taken from patent publication US8609173B2, “Compositions comprising sweetness enhancers and methods of making them” (Senomyx Inc., priority 2008, dated 2013).
